Assay results from patent US20160168118A1, “N-(5-QUINOLIN-6-YL)PYRIDIN-3-YL) BENZSULFAMIDE DERIVATIVES, PREPARATION METHOD AND THERAPEUTIC USE THEREOF” (SECOND MILITARY MEDICAL UNIVERSITY, PLA, priority 2012, published 2016).
Converted amounts (≈) assume the structure as drawn. Like-named read-outs stand apart in the source and are kept apart here.

What was measured:
[1] = system: HCT116 (human colon cancer cells); assay: MTT assay, HCT116; format: cell-based; conditions: HCT-116, 72 h
[2] = system: HepG2 (human hepatoma cells); assay: MTT assay, HepG2; format: cell-based; conditions: 72 h
Method: (§1) 1. Sample preparation: After dissolved with DMSO (Merck), PBS (−) was added to make 1000 μg/ml solution or a uniform suspension, and then diluted with PBS (−) containing the DMSO. Doxorubicin (DOX) was used as the positive control drug.
(§2) 2. Cell Line • 1) A549 (human lung cancer cells); 2) HCT116 (human colon cancer cells); 3) HepG2 (human hepatoma cells); 4) ZR-75-30 (human breast cancer cells); 5) U87MG (human brain star glioblastoma)
(§3) DMEM+5-10% FBS+double resistant
(§4) MTT assay. 100 μl cell suspension was added at a concentration of 4˜5×10^4 cells/ml to each well of a 96-well plate, and was set at 37° C., 5% CO2 in the incubator. After 24 h, the sample solution was added, 10 μl/hole, double wells were set, 37° C., acting for 72 h at 5% CO2. […] of 5 mg/ml was added to each well, the dissolving liquid was added after acted for 4 h, 100 μl/hole, kept in the incubator, and read 570 nm OD with MK-2 automatic microplate reader after dissolution.

[3] = system: U87MG (human brain star glioblastoma); assay: MTT assay, U87MG; format: cell-based; conditions: U-87 MG, 72 h
Method: as §1, §2, §3, §4

[4] = system: A549 (human lung cancer cells); assay: MTT assay, A549; format: cell-based; conditions: 72 h
Method: as §1, §2, §3, §4

[5] = system: ZR-75-30 (human breast cancer cells); assay: MTT assay, ZR-75-30; format: cell-based; conditions: 72 h
Method: as §1, §2, §3, §4

PI3Kα = PI3Kα (Homo sapiens, UniProt P42336); assay: Kinase-Glo Luminescent Kinase Assay, PI3Kα; format: biochemical
PI3K delta = PI3K delta (Homo sapiens, UniProt O00329); assay: Kinase-Glo Luminescent Kinase Assay, PI3K delta; format: biochemical
PI3Kγ = PI3Kγ (Homo sapiens, UniProt P48736); assay: ADP-Glo Luminescent Kinase Assay, PI3Kγ; format: biochemical; conditions: read-out: IC50 on PI3K gamma
PI3Kβ = PI3Kβ (Homo sapiens, UniProt P42338); assay: ADP-Glo Luminescent Kinase Assay, PI3Kβ; format: biochemical; conditions: read-out: IC50 on PI3K beta
mTOR = mTOR (Homo sapiens, UniProt P42345); assay: Lance Ultra Assay, mTOR; format: biochemical
five human tumor cells = assay: MTT assay, five human tumor cells (summary in words); format: cell-based; conditions: A549, HCT116, HepG2, ZR-75-30, U87MG
Method: as §1, §2, §3, §4

[6] = system: 60 kinds of human cancer cell lines; assay: Cytotoxicity test on 60 kinds of human cancer cell lines from the US National Cancer Institute; format: cell-based
From the text: (§5) Cytotoxicity Test of Compound 9, 10 and 17 on 60 Kinds of Human Cancer Cell Lines from the US National Cancer Institute

SF539 = assay: NCI cytotoxicity test, SF539; format: cell-based; conditions: Homo sapiens, SF-539
From the text: as §5

PC3 = assay: NCI cytotoxicity test, PC3; format: cell-based; conditions: Homo sapiens, PC-3
From the text: as §5

MCF7 = assay: NCI cytotoxicity test, MCF7; format: cell-based; conditions: Homo sapiens
From the text: as §5

A549 = assay: NCI cytotoxicity test, A549; format: cell-based; conditions: Homo sapiens
From the text: as §5

COLO205 = assay: NCI cytotoxicity test, COLO205; format: cell-based; conditions: Homo sapiens, COLO 205
From the text: as §5

SN12C = assay: NCI cytotoxicity test, SN12C; format: cell-based; conditions: Homo sapiens
From the text: as §5

OVCAR3 = assay: NCI cytotoxicity test, OVCAR3; format: cell-based; conditions: Homo sapiens, OVCAR-3
From the text: as §5

Chain of PI3Kα (P42336 whole entry, species assumed): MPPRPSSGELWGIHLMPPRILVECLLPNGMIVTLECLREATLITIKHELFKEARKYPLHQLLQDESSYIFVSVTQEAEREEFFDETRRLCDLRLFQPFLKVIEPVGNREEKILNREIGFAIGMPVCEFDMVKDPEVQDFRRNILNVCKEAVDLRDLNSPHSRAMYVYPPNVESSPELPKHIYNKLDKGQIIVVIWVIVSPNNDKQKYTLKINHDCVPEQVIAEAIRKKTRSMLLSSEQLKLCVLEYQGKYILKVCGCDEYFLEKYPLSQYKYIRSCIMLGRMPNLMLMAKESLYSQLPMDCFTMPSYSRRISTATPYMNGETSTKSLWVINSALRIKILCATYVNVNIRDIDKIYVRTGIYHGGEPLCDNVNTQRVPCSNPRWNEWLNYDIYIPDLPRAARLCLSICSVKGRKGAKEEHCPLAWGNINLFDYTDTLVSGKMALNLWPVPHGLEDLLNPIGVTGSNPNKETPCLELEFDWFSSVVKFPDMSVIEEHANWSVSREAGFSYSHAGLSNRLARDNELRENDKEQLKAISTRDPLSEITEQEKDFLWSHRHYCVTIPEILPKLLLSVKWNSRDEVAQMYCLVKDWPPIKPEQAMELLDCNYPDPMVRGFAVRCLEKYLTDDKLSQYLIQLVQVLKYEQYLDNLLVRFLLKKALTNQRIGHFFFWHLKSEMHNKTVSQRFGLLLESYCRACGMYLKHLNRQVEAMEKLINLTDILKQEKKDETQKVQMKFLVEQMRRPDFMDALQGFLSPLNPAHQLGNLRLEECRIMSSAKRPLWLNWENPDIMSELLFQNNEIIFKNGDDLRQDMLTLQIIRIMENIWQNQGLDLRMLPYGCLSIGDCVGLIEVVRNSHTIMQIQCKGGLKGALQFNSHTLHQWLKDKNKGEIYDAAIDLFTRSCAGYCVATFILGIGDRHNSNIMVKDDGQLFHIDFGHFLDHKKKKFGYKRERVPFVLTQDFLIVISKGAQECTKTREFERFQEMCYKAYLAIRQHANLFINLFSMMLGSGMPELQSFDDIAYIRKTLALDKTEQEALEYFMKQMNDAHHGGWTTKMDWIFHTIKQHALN
Chain of PI3Kα (P27986 whole entry partner, species assumed): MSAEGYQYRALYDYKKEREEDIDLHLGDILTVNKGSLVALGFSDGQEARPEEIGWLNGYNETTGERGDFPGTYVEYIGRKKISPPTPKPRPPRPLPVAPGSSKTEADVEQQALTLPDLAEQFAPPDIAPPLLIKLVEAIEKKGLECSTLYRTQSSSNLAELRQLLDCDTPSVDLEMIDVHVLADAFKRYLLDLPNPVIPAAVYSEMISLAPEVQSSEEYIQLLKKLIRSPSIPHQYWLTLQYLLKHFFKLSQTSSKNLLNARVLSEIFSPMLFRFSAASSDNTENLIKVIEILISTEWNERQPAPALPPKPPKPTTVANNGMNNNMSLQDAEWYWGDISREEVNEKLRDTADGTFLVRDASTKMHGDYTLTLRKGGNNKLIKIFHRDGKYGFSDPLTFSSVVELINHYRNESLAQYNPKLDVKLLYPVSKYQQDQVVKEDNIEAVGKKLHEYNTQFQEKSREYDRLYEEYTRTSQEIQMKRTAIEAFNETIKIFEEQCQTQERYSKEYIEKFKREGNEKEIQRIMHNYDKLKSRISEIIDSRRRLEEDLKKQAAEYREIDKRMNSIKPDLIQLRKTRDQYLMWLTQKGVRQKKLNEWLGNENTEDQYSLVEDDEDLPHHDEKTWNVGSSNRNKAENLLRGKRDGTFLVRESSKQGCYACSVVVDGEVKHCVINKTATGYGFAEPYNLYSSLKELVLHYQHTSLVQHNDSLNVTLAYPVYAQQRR
Chain of PI3Kβ (P42338 whole entry, species assumed): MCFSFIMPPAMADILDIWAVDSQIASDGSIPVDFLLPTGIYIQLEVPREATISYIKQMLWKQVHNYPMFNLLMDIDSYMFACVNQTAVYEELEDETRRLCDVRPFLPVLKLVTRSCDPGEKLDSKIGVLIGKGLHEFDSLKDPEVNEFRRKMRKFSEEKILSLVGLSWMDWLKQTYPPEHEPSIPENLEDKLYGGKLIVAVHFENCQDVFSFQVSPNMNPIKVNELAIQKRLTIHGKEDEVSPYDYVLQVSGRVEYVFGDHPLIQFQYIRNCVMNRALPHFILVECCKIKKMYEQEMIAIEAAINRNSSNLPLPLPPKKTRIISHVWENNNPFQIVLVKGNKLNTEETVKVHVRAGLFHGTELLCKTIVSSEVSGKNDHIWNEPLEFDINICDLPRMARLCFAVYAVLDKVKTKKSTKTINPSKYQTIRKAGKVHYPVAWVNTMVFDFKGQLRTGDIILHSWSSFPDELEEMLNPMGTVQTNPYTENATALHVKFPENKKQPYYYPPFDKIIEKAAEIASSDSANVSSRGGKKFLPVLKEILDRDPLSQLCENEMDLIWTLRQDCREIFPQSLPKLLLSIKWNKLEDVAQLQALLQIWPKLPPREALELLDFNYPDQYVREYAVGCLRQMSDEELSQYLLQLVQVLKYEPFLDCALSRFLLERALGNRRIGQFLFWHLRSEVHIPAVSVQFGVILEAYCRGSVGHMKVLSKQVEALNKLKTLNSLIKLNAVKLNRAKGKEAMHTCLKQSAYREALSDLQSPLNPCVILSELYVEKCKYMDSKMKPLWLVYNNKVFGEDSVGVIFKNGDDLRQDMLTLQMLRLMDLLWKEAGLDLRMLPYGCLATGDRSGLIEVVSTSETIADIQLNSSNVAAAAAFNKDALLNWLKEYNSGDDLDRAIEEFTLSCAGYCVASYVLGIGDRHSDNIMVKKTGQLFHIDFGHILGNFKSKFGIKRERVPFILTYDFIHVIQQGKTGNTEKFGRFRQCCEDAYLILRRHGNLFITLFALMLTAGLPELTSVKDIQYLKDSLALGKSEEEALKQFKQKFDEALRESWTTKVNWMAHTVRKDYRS
Chain of PI3Kβ (P27986 whole entry partner, species assumed): as the sequence (P27986 whole entry partner, species assumed) above
Chain of PI3K delta (O00329 whole entry): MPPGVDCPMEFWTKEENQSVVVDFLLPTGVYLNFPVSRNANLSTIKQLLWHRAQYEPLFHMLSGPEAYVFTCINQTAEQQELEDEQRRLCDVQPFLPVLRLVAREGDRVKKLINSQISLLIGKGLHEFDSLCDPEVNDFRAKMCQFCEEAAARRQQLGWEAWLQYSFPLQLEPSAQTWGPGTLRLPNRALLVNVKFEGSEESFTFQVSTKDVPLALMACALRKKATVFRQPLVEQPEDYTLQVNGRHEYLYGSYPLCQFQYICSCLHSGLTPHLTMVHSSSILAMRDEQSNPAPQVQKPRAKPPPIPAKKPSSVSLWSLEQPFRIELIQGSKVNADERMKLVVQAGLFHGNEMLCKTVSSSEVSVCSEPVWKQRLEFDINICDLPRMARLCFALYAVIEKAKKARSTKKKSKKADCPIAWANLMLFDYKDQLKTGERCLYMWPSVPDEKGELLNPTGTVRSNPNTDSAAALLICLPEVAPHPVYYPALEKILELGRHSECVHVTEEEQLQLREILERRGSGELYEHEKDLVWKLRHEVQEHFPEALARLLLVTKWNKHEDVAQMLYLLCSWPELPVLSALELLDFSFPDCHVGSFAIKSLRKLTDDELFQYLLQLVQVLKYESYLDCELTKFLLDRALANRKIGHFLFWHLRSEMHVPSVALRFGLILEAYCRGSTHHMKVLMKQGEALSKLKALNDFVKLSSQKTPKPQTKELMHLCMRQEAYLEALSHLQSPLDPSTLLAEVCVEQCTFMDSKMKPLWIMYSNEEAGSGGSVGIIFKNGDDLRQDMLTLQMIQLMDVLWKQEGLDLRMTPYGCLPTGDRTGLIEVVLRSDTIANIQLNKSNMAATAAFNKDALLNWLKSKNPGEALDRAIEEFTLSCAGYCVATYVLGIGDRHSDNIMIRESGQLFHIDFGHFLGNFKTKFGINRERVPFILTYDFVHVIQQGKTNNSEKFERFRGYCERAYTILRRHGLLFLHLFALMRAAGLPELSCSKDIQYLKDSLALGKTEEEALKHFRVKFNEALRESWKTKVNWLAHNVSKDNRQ
Chain of PI3K delta (P27986 whole entry partner): as the sequence (P27986 whole entry partner, species assumed) above
Chain of PI3Kγ (P48736 whole entry, species assumed): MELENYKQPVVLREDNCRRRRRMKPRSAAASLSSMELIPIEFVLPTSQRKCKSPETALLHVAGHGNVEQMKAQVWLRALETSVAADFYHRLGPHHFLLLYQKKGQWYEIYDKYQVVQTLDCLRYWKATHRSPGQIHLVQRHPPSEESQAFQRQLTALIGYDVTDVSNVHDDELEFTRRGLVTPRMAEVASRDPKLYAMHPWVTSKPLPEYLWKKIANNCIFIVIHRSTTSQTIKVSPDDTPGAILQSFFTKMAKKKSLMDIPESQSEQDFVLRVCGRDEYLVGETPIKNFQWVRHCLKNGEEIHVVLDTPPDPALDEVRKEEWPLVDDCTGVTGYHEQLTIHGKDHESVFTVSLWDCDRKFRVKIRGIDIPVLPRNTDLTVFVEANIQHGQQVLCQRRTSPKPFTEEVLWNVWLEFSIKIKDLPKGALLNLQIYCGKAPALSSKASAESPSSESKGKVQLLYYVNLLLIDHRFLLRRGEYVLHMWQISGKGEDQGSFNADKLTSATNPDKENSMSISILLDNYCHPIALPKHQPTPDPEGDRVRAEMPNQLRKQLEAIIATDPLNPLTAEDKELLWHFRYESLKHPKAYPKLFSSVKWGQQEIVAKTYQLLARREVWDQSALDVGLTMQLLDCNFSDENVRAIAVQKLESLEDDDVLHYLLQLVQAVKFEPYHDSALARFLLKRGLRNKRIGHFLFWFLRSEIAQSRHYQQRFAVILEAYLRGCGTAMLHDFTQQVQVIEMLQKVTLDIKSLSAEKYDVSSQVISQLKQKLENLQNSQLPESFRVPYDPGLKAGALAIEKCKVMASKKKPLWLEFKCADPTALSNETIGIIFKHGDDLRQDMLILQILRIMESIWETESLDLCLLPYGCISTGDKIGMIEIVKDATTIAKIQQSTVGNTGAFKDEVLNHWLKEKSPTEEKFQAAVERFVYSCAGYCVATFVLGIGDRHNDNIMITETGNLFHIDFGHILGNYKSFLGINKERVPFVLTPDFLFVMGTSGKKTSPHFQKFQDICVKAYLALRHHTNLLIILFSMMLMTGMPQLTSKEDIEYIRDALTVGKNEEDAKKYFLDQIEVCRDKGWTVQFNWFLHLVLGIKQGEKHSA

Compound | IC50 [1] | IC50 [2] | melting point | IC50 [3] | IC50 [4] | IC50 [5] | IC50 (PI3Kα) | further results
COc1ncc(-c2ccc3nccc(-c4ccc(C)cc4)c3c2)cc1NS(=O)(=O)c1ccc(F)cc1F [Compound 6, N-(2-methoxy-5-(4-(p-methylphenyl)quinolin-6-yl)pyridin-3-yl)-2,4-difluorobenzenesulfonamide] | 1.31 µg/mL (≈ 2.54 µM) | 5.63 µg/mL (≈ 10.9 µM) | 175 to 176 °C | 34.7 µg/mL (≈ 67 µM) | 0.642 µg/mL (≈ 1.24 µM) | 6.69 µg/mL (≈ 12.9 µM) | 4.5 nM | –
COc1ncc(-c2ccc3nccc(-n4cncn4)c3c2)cc1NS(=O)(=O)c1ccc(F)cc1F [Compound 1, N-(5-(4-(1H-1,2,4-triazole-1-yl)quinolin-6-yl)-2-methoxypyridine-3-yl)-2,4-difluorobenzenesulfonamide] | 0.011 µg/mL (≈ 0.0222 µM) | 1.37 µg/mL (≈ 2.77 µM) | 123 to 124 °C | 0.475 µg/mL (≈ 0.961 µM) | 0.00819 µg/mL (≈ 0.0166 µM) | 0.454 µg/mL (≈ 0.918 µM) | 0.55 nM | IC50 (PI3K delta): 2.6 nM; IC50 (PI3Kγ): 0.47 nM; IC50 (PI3Kβ): 3.6 nM; IC50 (mTOR): 1.1 nM
COc1ncc(-c2ccc3nccc(N4CCCC4)c3c2)cc1NS(=O)(=O)c1ccc(F)cc1F [Compound 2] | 1.65 µg/mL (≈ 3.32 µM) | 9.83 µg/mL (≈ 19.8 µM) | 223 to 225 °C | 3.32 µg/mL (≈ 6.69 µM) | 1.69 µg/mL (≈ 3.41 µM) | 6.73 µg/mL (≈ 13.6 µM) | > 100 nM | –
COc1ncc(-c2ccc3nccc(-c4ccc(Cn5cncn5)cc4)c3c2)cc1NS(=O)(=O)c1ccc(F)cc1F [Compound 10, N-(5-(4-(4-((1H-1,2,4-triazole-1-yl)methyl)phenyl)quinolin-6-yl)-2-methoxypyridine-3-yl)-2,4-difluorobenzenesulfonamide] | 0.00507 µg/mL (≈ 0.00867 µM) | – | 121 to 123 °C | 0.129 µg/mL (≈ 0.221 µM) | 0.00927 µg/mL (≈ 0.0159 µM) | – | 0.65 nM | IC50 (PI3K delta): 2.8 nM; in vitro proliferation inhibition (in words) (five human tumor cells): high in vitro proliferation inhibition; GI50 ([6]; on the 36 tumor cell lines, read-out: average half growth inhibitory concentration (GI50)): < 10 nM; GI50 ([6]; on the 60 kinds of tumor cells, read-out: Average GI50): 15.1 nM; GI50 (SF539): < 10 nM; GI50 (PC3): < 10 nM; GI50 (MCF7): < 10 nM; GI50 (A549): < 10 nM; GI50 (COLO205): < 10 nM; IC50 (PI3Kγ): 0.74 nM; IC50 (PI3Kβ): 1.7 nM; GI50 (SN12C): < 10 nM; IC50 (mTOR): 1.1 nM; GI50 (OVCAR3): < 10 nM
CN(CCO)Cc1ccc(-c2ccnc3ccc(-c4cnc(Cl)c(NS(=O)(=O)c5ccc(F)cc5F)c4)cc23)cc1 [Compound 37, N-(5-(4-(4-(((2-hydroxyethyl)(methyl)amino)methyl)phenyl)quinolin-6-yl)-2-chlorinepyridin-3-yl)-2,4-difluorobenzenesulfonamide] | 1.89 µg/mL (≈ 3.18 µM) | 1.71 µg/mL (≈ 2.87 µM) | 132 to 135 °C | – | 1.08 µg/mL (≈ 1.81 µM) | – | 0.75 nM | –
COC(=O)c1ccc(-c2ccnc3ccc(-c4cnc(OC)c(NS(=O)(=O)c5ccc(F)cc5F)c4)cc23)cc1 [Compound 7, 4-(6-(5-(2,4-difluorobenzenesulfonamideyl)-6-methoxypyridine-3-yl)quinolin-4-yl)methyl benzoate] | 0.277 µg/mL (≈ 0.493 µM) | 1.16 µg/mL (≈ 2.07 µM) | 69 to 72 °C | 3.9 µg/mL (≈ 6.95 µM) | 0.014 µg/mL (≈ 0.0249 µM) | 1.74 µg/mL (≈ 3.1 µM) | 1.5 nM | –
COc1ncc(-c2ccc3nccc(-c4ccc(Cn5cncn5)cc4)c3c2)cc1NS(=O)(=O)c1ccc(F)cc1 [Compound 34, N-(5-(4-(4-((1H-1,2,4-triazole-1-yl)methyl)phenyl)quinolin-6-yl)-2-methoxypyridine-3-yl)-4-fluorobenzenesulfonamide] | 1.15 µg/mL (≈ 2.03 µM) | 7.18 µg/mL (≈ 12.7 µM) | 150 to 152 °C | – | 0.28 µg/mL (≈ 0.494 µM) | – | 0.91 nM | –
CN(CCO)Cc1ccc(-c2ccnc3ccc(-c4cnc(Cl)c(NS(=O)(=O)c5ccc(F)cc5)c4)cc23)cc1 [Compound 36, N-(5-(4-(4-(((2-hydroxyethyl)(methyl)amino)methyl)phenyl)quinolin-6-yl)-2-chlorinepyridin-3-yl)-4-fluorobenzenesulfonamide] | 1.06 µg/mL (≈ 1.84 µM) | 1.1 µg/mL (≈ 1.91 µM) | 214 to 217 °C | – | 0.13 µg/mL (≈ 0.225 µM) | – | 1 nM | –
CCN(CC)Cc1ccc(-c2ccnc3ccc(-c4cnc(OC)c(NS(=O)(=O)c5ccc(F)cc5F)c4)cc23)cc1 [Compound 5, N-(5-(4-(4-((diethylamine)methyl)phenyl)quinolin-6-yl)-2-methoxypyridine-3-yl)-2,4-difluorobenzenesulfonamide] | 0.00293 µg/mL (≈ 0.00498 µM) | 0.613 µg/mL (≈ 1.04 µM) | 106 to 108 °C | 2.88 µg/mL (≈ 4.89 µM) | 0.013 µg/mL (≈ 0.0221 µM) | 0.783 µg/mL (≈ 1.33 µM) | 1.1 nM | –
CCOC(=O)c1ccc(-c2ccnc3ccc(-c4cnc(OC)c(NS(=O)(=O)c5ccc(F)cc5F)c4)cc23)cc1 [Compound 8, 4-(6-(5-(2,4-difluorobenzenesulfonamideyl)-6-methoxypyridine-3-yl)quinolin-4-yl) ethyl benzoate] | 0.235 µg/mL (≈ 0.408 µM) | 2.65 µg/mL (≈ 4.6 µM) | 90 to 92 °C | 11.7 µg/mL (≈ 20.3 µM) | 0.043 µg/mL (≈ 0.0747 µM) | 2.45 µg/mL (≈ 4.26 µM) | 2.6 nM | –
CN(C)Cc1ccc(-c2ccnc3ccc(-c4cnc(Cl)c(NS(=O)(=O)c5ccc(F)cc5F)c4)cc23)cc1 [Compound 32, N-(5-(4-(4-((dimethylamine)methyl)phenyl)quinolin-6-yl)-2-chlorinepyridin-3-yl)-2,4-difluorobenzenesulfonamide] | 1.03 µg/mL (≈ 1.82 µM) | 2.18 µg/mL (≈ 3.86 µM) | 160 to 164 °C | – | 2.12 µg/mL (≈ 3.75 µM) | – | 0.69 nM | –
COc1ncc(-c2ccc3nccc(-n4cncn4)c3c2)cc1NS(=O)(=O)c1ccc(F)cc1 [Compound 25, N-(5-(4-(1H-1,2,4-triazole-1-yl)quinolin-6-yl)-2-methoxypyridine-3-yl)-4-fluorobenzenesulfonamide] | 1.04 µg/mL (≈ 2.18 µM) | 9.49 µg/mL (≈ 19.9 µM) | 122 to 124 °C | – | 1.02 µg/mL (≈ 2.14 µM) | – | 1.2 nM | –
COc1ncc(-c2ccc3nccc(Cl)c3c2)cc1NS(=O)(=O)c1ccc(F)cc1F [Compound 4, N-(5-(4-chlorinequinolin-6-yl)-2-methoxypyridine-3-yl)-2,4-difluorobenzenesulfonamide] | 3.04 µg/mL (≈ 6.59 µM) | 2.26 µg/mL (≈ 4.89 µM) | 171 to 173 °C | > 100 µg/mL | 1.36 µg/mL (≈ 2.94 µM) | 2.59 µg/mL (≈ 5.61 µM) | 2.3 nM | –
COc1ncc(-c2ccc3nccc(N4CCOCC4)c3c2)cc1NS(=O)(=O)c1ccc(F)cc1F [Compound 3, N-(2-methoxy-5-(4-morpholinequinolin-6-yl)pyridin-3-yl)-2,4-difluorobenzenesulfonamide] | 2.27 µg/mL (≈ 4.43 µM) | 11.5 µg/mL (≈ 22.4 µM) | 219 to 221 °C | 64.7 µg/mL (≈ 126 µM) | 1.23 µg/mL (≈ 2.4 µM) | 2.16 µg/mL (≈ 4.21 µM) | 1.4 nM | –
O=S(=O)(Nc1cc(-c2ccc3nccc(-n4cncn4)c3c2)cnc1Cl)c1ccc(F)cc1 [Compound 27, N-(5-(4-(1H-1,2,4-triazole-1-yl)quinolin-6-yl)-2-chlorinepyridin-3-yl)-4-fluorobenzenesulfonamide] | 1.22 µg/mL (≈ 2.54 µM) | 9.43 µg/mL (≈ 19.6 µM) | 258 to 261 °C | – | 1.16 µg/mL (≈ 2.41 µM) | – | 0.81 nM | –
